Measurements: US8133884B2, “Compounds for the treatment of hepatitis C” (priority 2008, dated 2012)

Experiments:
HCV NS5B = target: T1, HCV NS5B (Hepatitis C virus genotype 1b, UniProt Q9WMX2); experiment: Modified HCV NS5B RdRp enzyme assay (preincubation protocol); type: biochemical
T1 construct: The protein was expressed with an 18 amino acid C-terminal truncation to enhance the solubility; made in house; host or cells: E. coli BL21(DE3)
Method: The cDNA encoding the NS5B protein of HCV, genotype 1b, was cloned into the pET21a expression vector. The protein was expressed with an 18 amino acid C-terminal truncation to enhance the solubility. The E. coli competent cell line BL21(DE3) was used for expression of the protein. Cultures were grown at 37° C. for ˜4 hours until the cultures reached an optical density of 2.0 at 600 nm. The cultures were cooled to 20° C. and induced with 1 mM IPTG. Fresh ampicillin was added to a final concentration of 50 μg/ml and the cells were grown overnight at 20° C.
Cell pellets (3 L) were lysed for purification to yield 15-24 mgs of purified NS5B. The lysis buffer consisted of 20 mM Tris-HCl, pH 7.4, 500 mM NaCl, 0.5% triton X-100, 1 mM DTT, 1 mM EDTA, 20% glycerol, 0.5 mg/ml lysozyme, 10 mM MgCl2, 15 ug/ml deoxyribonuclease I, and Complete TM protease inhibitor tablets (Roche). After addition of the lysis buffer, frozen cell pellets were resuspended using a tissue homogenizer. To reduce the viscosity of the sample, aliquots of the lysate were sonicated on ice using a microtip attached to a Branson sonicator. The sonicated lysate was centrifuged at 100,000×g for 1 hr at 4° C. and filtered through a 0.2 μm filter unit (Corning).
The protein was purified using three sequential chromatography steps: Heparin sepharose CL-6B, polyU sepharose 4B, and […] SP sepharose (Pharmacia). The chromatography buffers were identical to the lysis buffer but contained no lysozyme, deoxyribonuclease I, MgCl2 or protease inhibitor and the NaCl concentration of the buffer was adjusted according to the requirements for charging the protein onto the column. Each column was eluted with a NaCl gradient which varied in length from 5-50 column volumes depending on the column type. After the final chromatography step, the resulting purity of the enzyme is >90% based on SDS-PAGE analysis. The enzyme was aliquoted and stored at −80° C.
HCV RdRp genotype 1b assays were run in a final volume of 60 μl in 96 well plates (Costar 3912). The assay buffer is composed of 20 mM Hepes, pH 7.5, 2.5 mM KCl, 2.5 mM MgCl2, 1 mM DTT, 1.6 U RNAse inhibitor (Promega N2515), 0.1 mg/ml BSA (Promega R3961), and 2% glycerol. All compounds were serially diluted (3-fold) in DMSO and diluted further in water such that the final concentration of DMSO in the assay was 2%. HCV RdRp genotype 1b enzyme was used at a final concentration of 28 nM. A polyA template was used at 6 nM, and a biotinylated oligo-dT12 primer was used at 180 nM final concentration. Template was obtained commercially (Amersham 27-4110). Biotinylated primer was prepared by Sigma Genosys. 3H-UTP was used at 0.6 μCi (0.29 μM total UTP). Reactions were initiated by the addition of enzyme, incubated at 30° C. for 60 min, and stopped by adding 25 μl of 50 mM EDTA containing SPA beads (4 μg/μl, Amersham RPNQ 0007). Plates were read on a Packard TOPCOUNT® NXT after >1 hr incubation at room temperature.
A modified enzyme assay was performed essentially as described for the standard enzyme assay except for the following: The biotinylated oligo dT12 primer was precaptured on streptavidin-coated SPA beads by mixing primer and beads in assay buffer and incubating at room temperature for one hour. Unbound primer was removed after centrifugation. The primer-bound beads were resuspended in 20 mM Hepes buffer, pH 7.5 and used in the assay at final concentrations of 20 nM primer and 0.67 μg/μl beads. Order of addition in the assay: enzyme (14 nM) was added to diluted compound followed by the addition of a mixture of template (0.2 nM), 3H-UTP (0.6 μCi, 0.29 μM), and primer-bound beads, to initiate the reaction; concentrations given are final. Reactions were allowed to proceed for 4 hours at 30° C.
IC50 values for compounds were determined using seven different [I]. IC50 values were calculated from the inhibition using the formula y=A+((B−A)/(1+((C/x)^D))).

HCV replicon = HCV replicon assay (FRET or luciferase reporter); type: cell-based; details: Hepatitis C virus, one of the methods described
From the text: To perform the HCV FRET screening assay, 96-well cell culture plates were used, The FRET peptide (Anaspec, Inc.) (Taliani et al., Anal. Biochem., 240:60-67 (1996)) contains a fluorescence donor, EDANS, near one end of the peptide and an acceptor, DABCYL, near the other end. The fluorescence of the peptide is quenched by […] resonance energy transfer (RET) between the donor and the acceptor, but as the NS3 protease cleaves the peptide the products are released from RET quenching and the fluorescence of the donor becomes apparent. The assay reagent was made as follows: 5× cell Luciferase cell culture lysis reagent from Promega (#E153A) diluted to 1× with dH2O, NaCl added to 150 mM final, the FRET peptide diluted to 20 μM final from a 2 mM stock.
To prepare plates, HCV replicon cells, with or without a Renilla luciferase reporter gene, were trypsinized and placed into each well of a 96-well plate with titrated test compounds added in columns 3 through 12; columns 1 and 2 contained a control compound (HCV protease inhibitor), and the bottom row contained cells without compound. The plates were then placed in a CO2 incubator at 37° C.
Subsequent to addition of the test compounds described above (FRET Assay Preparation), at various times the plate was removed and Alamar blue solution (Trek Diagnostics, #00-100) was added per well as a measure of cellular toxicity. After reading in a CYTOFLUOR® 4000 instrument (PE Biosystems), plates were rinsed with PBS and then used for FRET assay by the addition of 30 ul of the FRET peptide assay reagent described above (FRET Assay Preparation) per well. The plate was then placed into the CYTOFLUOR® 4000 instrument which had been set to 340 excite/490 emission, automatic mode for 20 cycles and the plate read in a kinetic mode. Typically, the signal to noise using an endpoint analysis after the reads was at least three-fold. Alternatively, after Alamar blue reading, plates were rinsed with PBS, 50 ul of DMEM (high glucose) without phenol red was added and plates were then used for luciferase assay using the Promega DUAL-GLO® Luciferase Assay System.
Compound analysis was determined by quantification of the relative HCV replicon inhibition and the relative cytotoxicity values. To calculate cytoxicity values, the average Alamar Blue fluorescence signals from the control wells were set as 100% non-toxic. The individual signals in each of the compound test wells were then divided by the average control signal and multiplied by 100% to determine […]. To calculate the HCV replicon inhibition values, an average background value was obtained from the two wells containing the highest amount of HCV protease inhibitor at the end of the assay period. These numbers were similar to those obtained from naïve Huh-7 cells.
The background numbers were then subtracted from the average signal obtained from the control wells and this number was used as 100% activity. The individual signals in each of the compound test wells were then divided by the averaged control values after background subtraction and multiplied by 100% to determine percent activity. EC50 values for a protease inhibitor titration were calculated as the concentration which caused a 50% reduction in FRET or luciferase activity. The two numbers generated for the compound plate, percent cytoxicity and percent activity were used to determine compounds of interest for further analysis.
The HCV replicon luciferase assay was developed to monitor the inhibitory effects of compounds described in the disclosure on HCV viral replication. Utilization of a replicon luciferase reporter assay was first described by Krieger et al (Krieger, N. et al., J. Virology, 75(10):4614-4624 (2001)). HUH-7 cells, constitutively expressing the HCV replicon, were grown in Dulbecco's Modified Eagle Media (DMEM) (Gibco-BRL) containing 10% Fetal calf serum (FCS) (Sigma) and 1 mg/ml G418 (Gibco-BRL). […]

T1 sequence (Q9WMX2 2420-2992): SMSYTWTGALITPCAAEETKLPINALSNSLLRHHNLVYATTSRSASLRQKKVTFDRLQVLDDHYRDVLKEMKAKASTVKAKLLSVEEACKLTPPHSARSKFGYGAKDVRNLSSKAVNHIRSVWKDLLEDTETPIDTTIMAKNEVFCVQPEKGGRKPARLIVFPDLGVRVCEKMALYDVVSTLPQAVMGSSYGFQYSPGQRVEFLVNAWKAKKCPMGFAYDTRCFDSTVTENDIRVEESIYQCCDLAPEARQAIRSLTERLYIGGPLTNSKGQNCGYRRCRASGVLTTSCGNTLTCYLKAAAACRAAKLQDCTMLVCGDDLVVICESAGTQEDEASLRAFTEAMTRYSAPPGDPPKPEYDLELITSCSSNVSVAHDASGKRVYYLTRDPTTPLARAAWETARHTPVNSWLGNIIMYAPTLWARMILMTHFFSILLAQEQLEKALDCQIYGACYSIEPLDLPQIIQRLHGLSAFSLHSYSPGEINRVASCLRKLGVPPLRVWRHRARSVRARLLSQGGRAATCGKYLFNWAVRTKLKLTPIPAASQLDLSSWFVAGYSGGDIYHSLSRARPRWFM

SMILES | IC50 (HCV NS5B; class symbol) [nM] | EC50 (HCV replicon; class symbol) [nM] | IC50 (HCV NS5B; exact value) [nM] | EC50 (HCV replicon; exact value) [nM]
CCN1C[C@@H]2C[C@H]1CN2C(=O)c1cnn(C2CCOCC2)c1C1=Cc2cc(OC)ccc2-c2c(C3CCCCC3)c3ccc(C(=O)NS(=O)(=O)CC(C)C)cc3n2C1 | 1.7 to 500 | 1.7 to 500 | – | –
COc1ccc2c(c1)C=C(c1c(C(=O)N3CC4CCC(C3)N4C)cnn1C1CCOCC1)Cn1c-2c(C2CCCCC2)c2ccc(C(=O)NS(=O)(=O)CC(C)C)cc21 | 1.7 to 500 | 1.7 to 500 | – | –
COc1ccc2c(c1)C=C(c1c(C(=O)N3C[C@@H](C)O[C@@H](C)C3)cnn1-c1ccncc1C)Cn1c-2c(C2CCCCC2)c2ccc(C(=O)NS(=O)(=O)C3CC3)cc21 | 1.7 to 500 | 1.7 to 500 | – | –
COc1ccc2c(c1)C=C(c1c(C(=O)N3C[C@@H](C)O[C@@H](C)C3)cnn1-c1ccccc1)Cn1c-2c(C2CCCCC2)c2ccc(C(=O)NS(=O)(=O)C(C)C)cc21 | 1.7 to 500 | 1.7 to 500 | – | –
COc1ccc2c(c1)C=C(c1c(C(=O)N3C[C@@H](C)O[C@@H](C)C3)cnn1-c1ccccn1)Cn1c-2c(C2CCCCC2)c2ccc(C(=O)NS(=O)(=O)C(C)C)cc21 | 1.7 to 500 | 1.7 to 500 | – | –
COc1ccc2c(c1)C=C(c1c(C(=O)N3C[C@@H](C)O[C@@H](C)C3)cnn1C1CCCC1)Cn1c-2c(C2CCCCC2)c2ccc(C(=O)NS(=O)(=O)C(C)C)cc21 | 1.7 to 500 | 1.7 to 500 | – | –
COc1ccc2c(c1)C=C(c1c(C(=O)N3C[C@@H](C)O[C@@H](C)C3)cnn1-c1ncccn1)Cn1c-2c(C2CCCCC2)c2ccc(C(=O)NS(=O)(=O)C(C)C)cc21 | 1.7 to 500 | 1.7 to 500 | – | –
COc1ccc2c(c1)C=C(c1c(C(=O)N3C[C@@H](C)O[C@@H](C)C3)cnn1-c1cc[nH]c(=O)c1)Cn1c-2c(C2CCCCC2)c2ccc(C(=O)NS(=O)(=O)C(C)C)cc21 | 1.7 to 500 | > 1000 | 8.9 | > 1000
COc1ccc2c(c1)C=C(c1c(C(=O)N3C[C@@H](C)O[C@@H](C)C3)cnn1-c1ccncc1)Cn1c-2c(C2CCCCC2)c2ccc(C(=O)NS(=O)(=O)C(C)C)cc21 | 1.7 to 500 | 1.7 to 500 | – | –
COc1ccc2c(c1)C=C(c1c(C(=O)N3C[C@@H](C)O[C@@H](C)C3)cnn1-c1ccnc(C)c1)Cn1c-2c(C2CCCCC2)c2ccc(C(=O)NS(=O)(=O)C(C)C)cc21 | 1.7 to 500 | 1.7 to 500 | – | –
COc1ccc2c(c1)C=C(c1c(C(=O)N3C[C@@H](C)O[C@@H](C)C3)cnn1-c1cccnc1)Cn1c-2c(C2CCCCC2)c2ccc(C(=O)NS(=O)(=O)C(C)C)cc21 | 1.7 to 500 | 1.7 to 500 | – | –
COc1ccc2c(c1)C=C(c1c(C(=O)N3C[C@@H](C)O[C@@H](C)C3)cnn1-c1nc3ccccc3[nH]1)Cn1c-2c(C2CCCCC2)c2ccc(C(=O)NS(=O)(=O)C(C)C)cc21 | 1.7 to 500 | 1.7 to 500 | 9 | 150
COc1ccc2c(c1)C=C(c1c(C(=O)N3C[C@@H](C)O[C@@H](C)C3)cnn1-c1cnccn1)Cn1c-2c(C2CCCCC2)c2ccc(C(=O)NS(=O)(=O)C(C)C)cc21 | 1.7 to 500 | 1.7 to 500 | – | –
COc1ccc2c(c1)C=C(c1c(C(=O)N3CCOCC3)noc1C1CC1)Cn1c-2c(C2CCCCC2)c2ccc(C(=O)NS(=O)(=O)N(C)C)cc21 | 1.7 to 500 | 1.7 to 500 | – | –
COc1ccc2c(c1)C=C(c1c(C(=O)N3C[C@@H](C)O[C@@H](C)C3)noc1C1CC1)Cn1c-2c(C2CCCCC2)c2ccc(C(=O)NS(=O)(=O)N(C)C)cc21 | 1.7 to 500 | 1.7 to 500 | – | –
COC[C@@H]1CN(C(=O)c2cnn(C3CCC3)c2C2=Cc3cc(OC)ccc3-c3c(C4CCCCC4)c4ccc(C(=O)NS(=O)(=O)C(C)C)cc4n3C2)CCO1 | 1.7 to 500 | 1.7 to 500 | – | –
COc1ccc2c(c1)C=C(c1c(C(=O)N3CC4CCC(C3)O4)cnn1C1CCC1)Cn1c-2c(C2CCCCC2)c2ccc(C(=O)NS(=O)(=O)C(C)C)cc21 | 1.7 to 500 | 1.7 to 500 | 3.9 | 10
COc1ccc2c(c1)C=C(c1c(C(=O)N3CCN(C)CC3)cnn1C1CCC1)Cn1c-2c(C2CCCCC2)c2ccc(C(=O)NS(=O)(=O)C(C)C)cc21 | 1.7 to 500 | 1.7 to 500 | – | –
COc1ccc2c(c1)C=C(c1c(C(=O)N3C[C@@H]4C[C@H]3CO4)cnn1C1CCC1)Cn1c-2c(C2CCCCC2)c2ccc(C(=O)NS(=O)(=O)C(C)C)cc21 | 1.7 to 500 | 1.7 to 500 | 5.4 | 30
COc1ccc2c(c1)C=C(c1c(C(=O)N3C[C@@H]4C[C@H]3CN4CC3CC3)cnn1C1CCC1)Cn1c-2c(C2CCCCC2)c2ccc(C(=O)NS(=O)(=O)C(C)C)cc21 | 1.7 to 500 | 1.7 to 500 | – | –
COc1ccc2c(c1)C=C(c1c(C(=O)N3CCN4CCC[C@H]4C3)cnn1C1CCC1)Cn1c-2c(C2CCCCC2)c2ccc(C(=O)NS(=O)(=O)C(C)C)cc21 | 1.7 to 500 | 1.7 to 500 | – | –
COc1ccc2c(c1)C=C(c1c(C(=O)N3C[C@]4(C)CN(C)C[C@](C)(C3)C4)cnn1C1CCC1)Cn1c-2c(C2CCCCC2)c2ccc(C(=O)NS(=O)(=O)C(C)C)cc21 | 1.7 to 500 | 1.7 to 500 | – | –
